# System: 4T1 cancer cells mixed with BALB/C breast CAFs
# Experiment: 4T1 breast cancer cells co-injected with CAFs into the mammary fat pad of mice, NOX4 inhibitor treatment
# Type: in vivo, mouse
# Conditions: 4T1+CAF tumours
# Protocol: Fourteen (14) days after randomization and if the antitumor activity of NOX4/1 compounds alone or in combination is considered sufficient, tumors from 5 satellite mice per group are collected, weighed and the tumor is cut in 2 fragments. One fragment is cut into slices 4 mm thick and fixed in 4% neutral buffered formalin for 24 to 48 h, and then embedded in paraffin (Histosec®, Merck, Darmstadt, Germany). One fragment is embedded in tissue Freezing Medium (Microm Microtech, France), snap-frozen in isopentane cooled over liquid nitrogen and stored at […] until processing. Immunohistochemical stains for CD3, CD4 and CD8 are performed on paraffin-embedded tissue sections using standard techniques (Biodoxis, France). The number of CD3, CD4 and CD8 immunopositive cells per field are counted. When 4T1 cancer cells (0.5×105) are used, those are injected in PBS s.c into the upper mammary fat pad of female mice aged 8-10 weeks. Cells are either injected on their own, or mixed with 2.5×105 BALB/C breast CAFs isolated from transgenic BALBneuT spontaneous stromal-rich breast tumours. […] GKT137831 was reconstituted in 1.2% Methyl Cellulose (Sigma) with 0.1% Polysorbate (Sigma) and administered by oral gavage 5×/week at 40 mg/kg. Control mice received vehicle by oral gavage. For longer term dosing, 15 initial doses were given as stated, but reduced to 3×/week for 3 weeks at 50 mg/kg, then 2×/week for 3 weeks at 60 mg/kg. The anti PD-1 antibody (Bioxcell; RMP1-14) was given via […]) injection. 300 μg of the antibody or the IgG2a isotype control (Bioxcell) were given when tumours were palpable every other day, totaling 3 doses. For the data presented under FIG. 1, tumours were measured every 2-3 days by electronic skin caliper from longest width and length. Tumour volume was calculated using the formula 4/3πXr3, where the radius (r) was calculated from tumour width and length measurement to provide an average diameter value. Mice were randomized into groups based on tumour volume so that no statistical difference occurred between mean tumour volumes between groups before treatments began. […]
smiles,measurement,setting,value
"CN(C)c1cccc(-c2c3c(=O)n(-c4ccccc4Cl)[nH]c3cc(=O)n2C)c1 [GKT, 2-(2-chlorophenyl)-4-[3-(dimethylamino)phenyl]-5-methyl-1H-pyrazolo [4,3-c]pyridine-3,6(2H,5H)-dione]",SMA-positive CAF in tumours (immunochemistry),FIG. 1B,significantly reduces
same,CD8+ T-cell location in tumour (immunochemistry),FIG. 1C,relocation of CD8+ T-cells from the tumour edge into the centre of the tumour
same,tumour volume vs vehicle alone,"day 15, after 8 days of treatment, oral gavage 40 mg/kg 5x/week, FIG. 1A",significantly smaller

# — patent publication US12011436B2, “Use of NOX inhibitors for treatment of cancer” (CALLIDITAS THERAPEUTICS SUISSE SA, priority 2017, dated 2024)
